Measurements from patent publication US7109296B2, “Human 5-HT3-C protein” (Ortho-McNeil Pharmaceutical, Inc., priority 1999, dated 2006).
Where a SMILES comes first, the peptide text is derived from it.

Experiments:
Assay type in all cases: cell-based
[1] = target: T1, 5-HT3-C together with nicotinic ACh receptor subunits β1, β2 and β3 (Homo sapiens, UniProt Q8WXA8); experiment: Two-electrode voltage clamp, oocytes injected with 5-HT3-C together with nicotinic ACh receptor subunits β1, β2 and β3; conditions: >100 μM; 5-HT3-C with β1, β2 and β3 (0.2–0.25 ng); n=5;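 note: oocytes expressing the subunits for 2–14 days, voltage-clamped at −70 mV under continuous ND96 perfusion at room temperature, with water-injected oocytes serving as controls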
T1 construct: Characterization of the Function of Protein Encoded by p5HT3CR in Xenopus oocvtes; expressed in transfected cells; host or cells: Xenopus laevis oocytes injected with cRNA
T1 sequence (Q8WXA8 28-447): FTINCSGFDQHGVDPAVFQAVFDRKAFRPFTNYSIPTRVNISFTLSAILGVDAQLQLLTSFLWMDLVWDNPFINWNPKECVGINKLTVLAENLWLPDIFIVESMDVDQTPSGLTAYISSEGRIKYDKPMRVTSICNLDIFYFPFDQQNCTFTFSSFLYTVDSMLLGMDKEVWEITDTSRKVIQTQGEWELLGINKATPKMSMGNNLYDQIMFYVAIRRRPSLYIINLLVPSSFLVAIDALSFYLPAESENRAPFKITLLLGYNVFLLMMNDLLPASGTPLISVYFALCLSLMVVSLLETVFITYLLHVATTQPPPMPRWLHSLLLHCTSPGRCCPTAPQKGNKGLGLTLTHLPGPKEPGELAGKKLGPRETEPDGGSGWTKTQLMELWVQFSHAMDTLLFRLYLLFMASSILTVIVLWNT

human 5-HT3-C = target: T2, human 5-HT3-C (Homo sapiens, UniProt Q8WXA8); experiment: Two-electrode voltage clamp, Xenopus oocytes injected with 5-HT3-C cRNA alone; conditions: for sensitivity of oocytes to neuroactive compound: >100 μM, only 5-HT3-C cRNA (33.5 ng), n=5
T2 construct: Characterization of the Function of Protein Encoded by p5HT3CR in Xenopus oocvtes; expressed in transfected cells; host or cells: Xenopus laevis oocytes injected with in vitro transcribed cRNA (pGEM HE)
T2 sequence (Q8WXA8 28-447): T1 sequence (Q8WXA8 28-447)
Protocol: (§1) Characterization of the Function of Protein Encoded by p5HT3CR in Xenopus oocvtes Xenopus laevis oocytes were prepared and injected using standard methods previously described and known in the art (Fraser et al., 1993). Ovarian lobes from adult female Xenopus laevis (Nasco, Fort Atkinson, Wis.) were teased apart, rinsed several times in nominally Ca-free saline containing (in mM): NaCl 82.5, KCl 2.5, MgCl2 1, HEPES 5, adjusted to pH 7.0 with NaOH(OR-2), and gently shaken in OR-2 containing 0.2% collagenase Type 1 (ICN Biomedicals, Aurora, Ohio) for 2–5 hours. When approximately 50% of the follicular layers were removed, Stage V and VI oocytes were selected and rinsed in media consisting of 75% OR-2 and 25% ND-96. The ND-96 contained (in mM): NaCl 100, KCl 2, MgCl2 1, CaCl2 1.8, HEPES 5, Na pyruvate 2.5, gentamicin (50 ug/ml), adjusted to pH 7.0 with NaOH. […] For in vitro transcription, pGEM HE (Liman et al., 1992) containing human 5-HT3-A (Genbank D49394) or 5-HT3-C cDNA was linearized with NheI and transcribed with T7 RNA polymerase (Stratagene) in the presence of the cap analog m7G(5′)ppp(5′)G. The synthesized cRNA was purified with a Sephadex G-50 spin column. […] Control oocytes were injected with 50 nl of water. Oocytes were incubated for 2–14 days in ND-96 before analysis for expression of the human 5-HT3-C. Incubations and collagenase digestion were carried out at room temperature. Injected oocytes were maintained in 48 well cell culture clusters (Costar, Cambridge, Mass.) at 18° C. Whole cell agonist-induced currents were measured 1–14 days after injection with a conventional two-electrode voltage clamp (GeneClamp500, Axon Instruments, Foster City, Calif.) using standard methods previously described and known in the art (Dascal, 1987). The microelectrodes were filled with 3 M KCl, which had resistances of 1 and 2 MΩ. Cells were continuously perfused with ND96 at 10 ml/min at room temperature unless indicated. Membrane voltage was clamped at −70 mV unless indicated.

[2] = target: T3, 5-HT3-C together with nicotinic ACh receptor a6 subunit (Homo sapiens, UniProt Q15825+Q8WXA8); experiment: Two-electrode voltage clamp, oocytes injected with 5-HT3-C together with nicotinic ACh receptor α6 subunit; conditions: 500 μM; eight days after injection; 5-HT3-C 0.67 ng, a6 1 ng/oocyte
T3 construct: Characterization of the Function of Protein Encoded by p5HT3CR in Xenopus oocvtes; expressed in transfected cells; host or cells: Xenopus laevis oocytes injected with cRNA
Protocol: Characterization of the Function of Protein Encoded by p5HT3CR in Xenopus oocvtes Xenopus laevis oocytes were prepared and injected using standard methods previously described and known in the art (Fraser et al., 1993). Ovarian lobes from adult female Xenopus laevis (Nasco, Fort Atkinson, Wis.) were teased apart, rinsed several times in nominally Ca-free saline containing (in mM): NaCl 82.5, KCl 2.5, MgCl2 1, HEPES 5, adjusted to pH 7.0 with NaOH(OR-2), and gently shaken in OR-2 containing 0.2% collagenase Type 1 (ICN Biomedicals, Aurora, Ohio) for 2–5 hours. When approximately 50% of the follicular layers were removed, Stage V and VI oocytes were selected and rinsed in media consisting of 75% OR-2 and 25% ND-96. The ND-96 contained (in mM): NaCl 100, KCl 2, MgCl2 1, CaCl2 1.8, HEPES 5, Na pyruvate 2.5, gentamicin (50 ug/ml), adjusted to pH 7.0 with NaOH. […] For in vitro transcription, pGEM HE (Liman et al., 1992) containing human 5-HT3-A (Genbank D49394) or 5-HT3-C cDNA was linearized with NheI and transcribed with T7 RNA polymerase (Stratagene) in the presence of the cap analog m7G(5′)ppp(5′)G. The synthesized cRNA was purified with a Sephadex G-50 spin column. Oocytes were injected with 50 nl of the human serotonin 5-HT3-A receptor with or without the 5-HT3-C RNA (0.02 and 0.002–0.2 ng each) or other channel or receptor subunit. Control oocytes were injected with 50 nl of water. Oocytes were incubated for 2–14 days in ND-96 before analysis for expression of the human 5-HT3-C. Incubations and collagenase digestion were carried out at room temperature. Injected oocytes were maintained in 48 well cell culture clusters (Costar, Cambridge, Mass.) at 18° C. Whole cell agonist-induced currents were measured 1–14 days after injection with a conventional two-electrode voltage clamp (GeneClamp500, Axon Instruments, Foster City, Calif.) using standard methods previously described and known in the art (Dascal, 1987). The microelectrodes were filled with 3 M KCl, which had resistances of 1 and 2 MΩ. […]

5-HT3-B and 5-HT3-C = target: T4, 5-HT3-B and 5-HT3-C (Homo sapiens, UniProt O95264+Q8WXA8); experiment: Two-electrode voltage clamp, oocytes co-injected with 5-HT3-B and 5-HT3-C; conditions: 100 μM; 5-HT3-B 3.3 ng, 5-HT3-C 3.35 ng/oocyte
T4 construct: Characterization of the Function of Protein Encoded by p5HT3CR in Xenopus oocvtes; expressed in transfected cells; host or cells: Xenopus laevis oocytes co-injected with cRNAs
T4 sequence (O95264 22-441): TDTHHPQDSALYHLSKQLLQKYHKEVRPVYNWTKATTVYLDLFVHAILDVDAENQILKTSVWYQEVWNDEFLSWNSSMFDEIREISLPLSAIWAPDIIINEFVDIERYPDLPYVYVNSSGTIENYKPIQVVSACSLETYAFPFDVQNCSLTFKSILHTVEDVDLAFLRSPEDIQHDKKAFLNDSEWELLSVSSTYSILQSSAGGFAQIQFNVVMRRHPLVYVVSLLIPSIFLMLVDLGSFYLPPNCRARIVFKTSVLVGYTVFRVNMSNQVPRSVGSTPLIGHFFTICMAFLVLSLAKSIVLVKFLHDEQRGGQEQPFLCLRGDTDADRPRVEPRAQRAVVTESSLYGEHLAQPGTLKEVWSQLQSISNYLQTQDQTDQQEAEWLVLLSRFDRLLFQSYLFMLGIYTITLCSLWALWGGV
T4 sequence (Q8WXA8 28-447): T1 sequence (Q8WXA8 28-447)
Protocol: as §1

[3] = 10 μM, oocytes injected with 33.3 ng 5-HT3-C cRNA

T3 sequence (Q15825 26-494, one chain of several): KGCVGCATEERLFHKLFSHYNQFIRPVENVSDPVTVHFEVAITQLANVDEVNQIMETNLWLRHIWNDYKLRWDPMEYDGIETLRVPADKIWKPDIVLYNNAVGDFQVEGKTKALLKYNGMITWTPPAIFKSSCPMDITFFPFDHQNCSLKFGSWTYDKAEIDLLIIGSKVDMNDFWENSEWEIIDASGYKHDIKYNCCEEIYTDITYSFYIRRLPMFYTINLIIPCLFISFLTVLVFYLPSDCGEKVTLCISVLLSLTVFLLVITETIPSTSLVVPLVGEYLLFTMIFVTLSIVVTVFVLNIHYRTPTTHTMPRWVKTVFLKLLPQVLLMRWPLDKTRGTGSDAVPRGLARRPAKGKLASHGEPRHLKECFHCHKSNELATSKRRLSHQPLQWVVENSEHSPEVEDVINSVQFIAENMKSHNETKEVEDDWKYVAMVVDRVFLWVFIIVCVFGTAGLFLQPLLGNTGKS

Compound | sensitivity of oocytes to neuroactive compound [1] | sensitivity of oocytes to neuroactive compound (human 5-HT3-C) | other results
O=C(O)Cc1c[nH]c2ccc(O)cc12 [5-hydroxyindolacetic acid] | insensitive | insensitive | –
O=C(O)c1cc2cc(O)ccc2[nH]1 [5-hydroxyindole 2-carboxylic acid] | insensitive | insensitive | –
NC(=O)Cc1c[nH]c2ccc(O)cc12 [5-hydroxyindole 3-acetamide] | insensitive | insensitive | –
COc1cc2c(CCNC(C)=O)c[nH]c2cc1O [6-hydroxymelatonin] | insensitive | insensitive | –
CC(=O)OCC[N+](C)(C)C [ACh] | insensitive | insensitive | responsiveness of oocytes to agonist [2]: not responsive; effect of agonist (agonist-induced current) (human 5-HT3-C; [3]): No effect; effect of agonist (agonist-induced current) (human 5-HT3-C; 500 μM, oocytes injected with 33.5 ng 5-HT3-C): No effect
NCCc1ccc(O)c(O)c1 [DA, dopamine] | insensitive | insensitive | effect of agonist (agonist-induced current) (human 5-HT3-C; 100 μM, oocytes injected with 33.5 ng 5-HT3-C): No effect
NCCCC(=O)O [GABA] | insensitive | insensitive | effect of agonist (agonist-induced current) (human 5-HT3-C; >30 μM, oocytes injected with 33.3 ng 5-HT3-C cRNA): No effect
N[C@H](CC(=O)O)C(=O)O [L-aspartate, L- and D-aspartate] | insensitive | insensitive | –
CC(=O)NCCc1c[nH]c2ccc(O)cc12 [N-acetyl serotonin] | insensitive | insensitive | –
CC(=O)N[C@@H](CS)C(=O)O [N-acetyl-L-cysteine] | insensitive | insensitive | –
CNCCc1c[nH]c2ccc(O)cc12 [N-ω-methyl-5-HT] | – | – | responsiveness of oocytes to agonist (5-HT3-B and 5-HT3-C): unresponsive
CC(=O)N[C@@H](CC(=O)O)C(=O)N[C@@H](CCC(=O)O)C(=O)O [acetyl-aspartyl-L-glutamic acid] (Ac-Asp-Glu-OH) | insensitive | insensitive | –
N=C(N)NCCCCN [agmatine] | insensitive | insensitive | –
NC/C=C\C(=O)O [cis-4 aminocrotonic acid] | insensitive | insensitive | –
N[C@@H]1CONC1=O [d-cycloserine] | insensitive | insensitive | –
N[C@@H](CCC(=O)O)C(=O)O [glutamate] | insensitive | insensitive | –
NCC(=O)O [glycine] | insensitive | insensitive | effect of agonist (agonist-induced current) (human 5-HT3-C; 100 M, oocytes injected with 33.3 ng 5-HT3-C cRNA): No effect
NCCc1c[nH]cn1 [histamine] | insensitive | insensitive | effect of agonist (agonist-induced current) (human 5-HT3-C; [3]): No effect
COc1ccc2[nH]cc(CCNC(C)=O)c2c1 [melatonin] | insensitive | insensitive | –
NC[C@H](O)c1ccc(O)c(O)c1 [norepinephrine] | insensitive | insensitive | –
NCC(O)c1ccc(O)cc1 (centres unmarked) [octopamine] | insensitive | insensitive | –
NCCS(=O)(=O)O [taurine] | insensitive | insensitive | –
NCCc1c[nH]c2ccccc12 [tryptamine] | insensitive | insensitive | –
N[C@@H](Cc1c[nH]c2ccccc12)C(=O)O [tryptophan] | insensitive | insensitive | –
NC(=O)[C@@H](N)Cc1c[nH]c2ccccc12 [tryptophanamide] | insensitive | insensitive | –
NCCc1ccc(O)cc1 [tyramine] | insensitive | insensitive | –
NCCC(=O)O [β-alanine] | insensitive | insensitive | –
NCCc1ccccc1 [β-phenylethylamine] | insensitive | insensitive | –
